Test results taken from the supplement of paper PMC11061612.

Tests used:
Test in all cases: Bliss excess, mean over the matrix (fraction); higher = more synergy
[1] = system: SW1417 (Colorectal Carcinoma)
Method in brief: (§1)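 Cell lines in DMEM/F12 or RPMI with 10% FBS were plated in 1536-well plates, held 24 hours at 37°C, 5% CO2, then given two-drug dose matrices for 72 hours (DMSO typically 0.2%). Viability was read by CellTiter-Glo 2.0 luminescence and scaled as inhibition from 0 (vehicle wells) to 1 (blank wells). Combination Emax is the second-highest inhibition in the matrix; Bliss excess is observed combination effect minus expected EA + EB − EA·EB, EA and EB being single-agent effects.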

[2] = system: COLO-678 (Colorectal Carcinoma)
Method in brief: as §1

[3] = system: SW837 (Colorectal Carcinoma)
Method in brief: as §1

NCI-H2818 (Mesothelioma) = system: NCI-H2818 (Mesothelioma)
Method in brief: as §1

[4] = system: BL-41 (Burkitt's Lymphoma)
Method in brief: as §1

MEL-JUSO (Melanoma) = system: MEL-JUSO (Melanoma)
Method in brief: as §1

[5] = system: HDQ-P1 (Breast Carcinoma)
Method in brief: as §1

[6] = system: KARPAS-45 (T-Lymphoblastic Leukemia)
Method in brief: as §1

[7] = system: CAMA-1 (Breast Carcinoma)
Method in brief: as §1

CHP-212 (Neuroblastoma) = system: CHP-212 (Neuroblastoma)
Method in brief: as §1

[8] = system: MS751 (Cervical Carcinoma)
Method in brief: as §1

[9] = system: KM12 (Colorectal Carcinoma)
Method in brief: as §1

ES1 (Ewing's Sarcoma) = system: ES1 (Ewing's Sarcoma)
Method in brief: as §1

[10] = system: SU-DHL-8 (B-Cell Non-Hodgkin's Lymphoma)
Method in brief: as §1

[11] = system: L-540 (Hodgkin's Lymphoma)
Method in brief: as §1

U251 (Low Grade Glioma) = system: U251 (Low Grade Glioma)
Method in brief: as §1

WIL2-NS (Non-Cancerous) = system: WIL2-NS (Non-Cancerous)
Method in brief: as §1

[12] = system: TOV-112D (Ovarian Carcinoma)
Method in brief: as §1

[13] = system: BFTC-905 (Bladder Carcinoma)
Method in brief: as §1

[14] = system: DND-41 (T-Lymphoblastic Leukemia)
Method in brief: as §1

SMILES	Bliss excess [1]	Bliss excess [2]	Bliss excess [3]	Bliss excess (NCI-H2818 (Mesothelioma))	Bliss excess [4]	Bliss excess (MEL-JUSO (Melanoma))	Bliss excess [5]	Bliss excess [6]	Bliss excess [7]	Bliss excess (CHP-212 (Neuroblastoma))	Bliss excess [8]	Bliss excess [9]	Bliss excess (ES1 (Ewing's Sarcoma))	Bliss excess [10]	Bliss excess [11]	Bliss excess (U251 (Low Grade Glioma))	Bliss excess (WIL2-NS (Non-Cancerous))	Bliss excess [12]	Bliss excess [13]	Bliss excess [14]
COc1nnc2ccc(N3CCC(c4ccc(OCCN5CCN(C)C(=O)[C@H]5C)cc4)CC3)nn12 [AZD5153] + Cc1c2c(nn1C)CSCc1cc(n(C)n1)CSc1cc(c3ccccc3c1)OCCCc1c(C(=O)O)n(C)c3c-2c(Cl)ccc13 [AZD5991] (first compound max 1 µM, 7x7, partner max 1 µM)	-0.0252	-0.0476	-0.0411	0.0183	-0.025	-0.0507	-0.0667	0.0139	0.0283	-0.0281	0.0038	-0.0473	-0.037	-0.0131	0.0062	-0.0253	-0.0255	0.0347	-0.0056	0.0181
COc1nnc2ccc(N3CCC(c4ccc(OCCN5CCN(C)C(=O)[C@H]5C)cc4)CC3)nn12 [AZD5153] + Cn1cnc2c(F)c(Nc3ccc(Br)cc3Cl)c(C(=O)NOCCO)cc21 [Selumetinib] (first compound max 1 µM, 7x7, partner max 10 µM)	0.0496	-0.0382	-0.0187	-0.0031	-0.0526	0.0889	-0.0697	0.0362	0.0022	-0.0285	0.0385	-0.0166	-0.0511	0.0473	-0.0441	-0.0062	0.0265	0.0303	0.0113	0.0425
Cc1c2c(nn1C)CSCc1cc(n(C)n1)CSc1cc(c3ccccc3c1)OCCCc1c(C(=O)O)n(C)c3c-2c(Cl)ccc13 [AZD5991] + C1CN(CCC1(C(=O)N[C@@H](CCO)C2=CC=C(C=C2)Cl)N)C3=NC=NC4=C3C=CN4 [Capivasertib] (first compound max 1 µM, 7x7, partner max 3 µM)	-0.0021	-0.0078	-0.0191	0.0054	0.0066	-0.0203	0.0072	0.0484	0.0993	-0.0066	0.0425	0.0136	0.0708	-0.0225	0.0152	0.0231	-0.0169	-0.0181	0.0226	0.0038
Cc1c2c(nn1C)CSCc1cc(n(C)n1)CSc1cc(c3ccccc3c1)OCCCc1c(C(=O)O)n(C)c3c-2c(Cl)ccc13 [AZD5991] + C=CCn1c(=O)c2cnc(Nc3ccc(N4CCN(C)CC4)cc3)nc2n1-c1cccc(C(C)(C)O)n1 [AZD1775] (first compound max 1 µM, partner max 1 µM)	-0.0548	-0.0614	0	0.112	-0.0133	-0.0033	-0.0575	-0.0189	-0.0092	-0.0508	-0.0155	0.0031	-0.0524	-0.01	-0.0127	0.0025	0	-0.017	-0.0212	-0.0375
Cc1c2c(nn1C)CSCc1cc(n(C)n1)CSc1cc(c3ccccc3c1)OCCCc1c(C(=O)O)n(C)c3c-2c(Cl)ccc13 [AZD5991] + CCN(CCO)CCCOc1ccc2c(Nc3cc(CC(=O)Nc4cccc(F)c4)[nH]n3)ncnc2c1 [AZD2811] (first compound max 1 µM, 7x7, partner max 1 µM)	-0.0139	-0.0673	-0.0341	-0.0116	-0.0295	0.0389	-0.0283	-0.0409	0.0743	-0.0496	0.0367	0.058	0.0915	0.0416	0.0788	0.098	0.0821	0.0906	0.11	0.0265
Cc1c2c(nn1C)CSCc1cc(n(C)n1)CSc1cc(c3ccccc3c1)OCCCc1c(C(=O)O)n(C)c3c-2c(Cl)ccc13 [AZD5991] + CN(C)CCCOc1ccc(-c2ccc3ncc4c(c3c2)n(C2CCOCC2)c(=O)n4C)cn1 [AZD0156] (first compound max 1 µM, 7x7, partner max 1 µM)	0.0308	-0.0427	0.0004	-0.0052	0.0168	0.0023	0.0104	-0.0403	0.002	-0.0538	0.0099	-0.0453	0.0092	-0.0377	-0.0021	0.0334	-0.0099	-0.0265	0.0304	0.0195
Cc1c2c(nn1C)CSCc1cc(n(C)n1)CSc1cc(c3ccccc3c1)OCCCc1c(C(=O)O)n(C)c3c-2c(Cl)ccc13 [AZD5991] + C[C@@H]1COCCN1C2=NC(=NC(=C2)C3(CC3)[S@](=N)(=O)C)C4=C5C=CNC5=NC=C4 [AZD6738] (first compound max 1 µM, 7x7, partner max 10 µM)	-0.0352	-0.0899	0.0152	0.0148	-0.0045	0.0406	0.0563	0.0077	0.0332	0.0122	0.0565	0.0321	0.0292	0.0814	0.0278	0.0572	-0.0025	0.0477	0.0113	0.0215
Cc1c2c(nn1C)CSCc1cc(n(C)n1)CSc1cc(c3ccccc3c1)OCCCc1c(C(=O)O)n(C)c3c-2c(Cl)ccc13 [AZD5991] + C[C@@H](Nc1cc(F)cc(F)c1)c1cc(C(=O)N(C)C)cc2c(=O)cc(N3CCOCC3)oc12 [AZD8186] (first compound max 1 µM, 7x7, partner max 3 µM)	-0.0342	-0.0613	-0.0156	-0.0343	-0.0096	0.0086	-0.0209	0.0206	0.0868	-0.0203	0.0705	0.0121	0.013	-0.0961	-0.0224	-0.0334	-0.0749	-0.0028	-0.012	-0.0249
Cc1c2c(nn1C)CSCc1cc(n(C)n1)CSc1cc(c3ccccc3c1)OCCCc1c(C(=O)O)n(C)c3c-2c(Cl)ccc13 [AZD5991] + Cc1cc2ncnn2cc1Nc1ncc2c(n1)n(C1CCOCC1)c(=O)n2C [AZD7648] (first compound max 1 µM, 7x7, partner max 10 µM)	0.0054	-0.0416	-0.0454	-0.0757	0.029	-0.0453	-0.0352	-0.0163	-0.0456	0.0203	-0.0396	-0.0073	-0.013	-0.0664	-0.0036	-0.0054	0.0039	-0.0214	-0.0282	-0.0023
Cc1c2c(nn1C)CSCc1cc(n(C)n1)CSc1cc(c3ccccc3c1)OCCCc1c(C(=O)O)n(C)c3c-2c(Cl)ccc13 [AZD5991] + Cn1cnc2c(F)c(Nc3ccc(Br)cc3Cl)c(C(=O)NOCCO)cc21 [Selumetinib] (first compound max 1 µM, 7x7, partner max 3 µM)	-0.0015	-0.0226	0.0024	-0.0458	-0.0206	0.0046	0.0002	0.011	-0.035	-0.0136	0.067	-0.0063	0.0123	-0.074	0.0007	-0.0024	-0.0263	0.0038	0.0136	0.021
C[C@@H]1COCCN1c1cc(C2([S@](C)(=N)=O)CC2)nc(-c2ccnc3[nH]ccc23)n1 [AZD6738] + O=C(c1cc(Cc2n[nH]c(=O)c3ccccc23)ccc1F)N1CCN(C(=O)C2CC2)CC1 [Olaparib] (first compound max 10 µM, 7x7, partner max 10 µM)	0.0033	-0.0046	0.0093	0.0285	-0.0556	0.0118	0.0155	0.0023	-0.0327	-0.0095	0.0114	0.0138	-0.0157	0.0343	-0.022	0.056	-0.0083	0.0206	0.0156	-0.0128
Cc1cc2ncnn2cc1Nc1ncc2c(n1)n(C1CCOCC1)c(=O)n2C [AZD7648] + C=CCn1c(=O)c2cnc(Nc3ccc(N4CCN(C)CC4)cc3)nc2n1-c1cccc(C(C)(C)O)n1 [AZD1775] (first compound max 10 µM, partner max 1 µM)	-0.0328	-0.0224	0.0241	0.0563	-0.0511	0.0263	-0.0805	0.0367	-0.0068	0.0249	0.0245	-0.0388	0.0181	-0.0079	0.0106	-0.014	-0.0038	-0.0325	0.022	-0.0109
Cc1cc2ncnn2cc1Nc1ncc2c(n1)n(C1CCOCC1)c(=O)n2C [AZD7648] + CCN(CCO)CCCOc1ccc2c(Nc3cc(CC(=O)Nc4cccc(F)c4)[nH]n3)ncnc2c1 [AZD2811] (first compound max 10 µM, 7x7, partner max 1 µM)	-0.106	-0.0119	0.0018	0.0283	0.0668	0.0461	-0.0154	-0.0341	-0.0677	-0.0162	-0.0094	0.004	0.0855	0.038	0.048	-0.0046	0.0024	0.0263	0.0469	0.0308
